In patent US20150232420A1, “TRANSGLUTAMINASE TG2 INHIBITORS, PHARMACEUTICAL COMPOSITIONS, AND METHODS OF USE THEREOF” (priority 2012, published 2015) one finds IC50 data, which are given here for 33 compounds.

Structures are written as SMILES.

The test deals with T1, human TG2 (Homo sapiens, UniProt P21980).
T1 sequence (P21980 1-687): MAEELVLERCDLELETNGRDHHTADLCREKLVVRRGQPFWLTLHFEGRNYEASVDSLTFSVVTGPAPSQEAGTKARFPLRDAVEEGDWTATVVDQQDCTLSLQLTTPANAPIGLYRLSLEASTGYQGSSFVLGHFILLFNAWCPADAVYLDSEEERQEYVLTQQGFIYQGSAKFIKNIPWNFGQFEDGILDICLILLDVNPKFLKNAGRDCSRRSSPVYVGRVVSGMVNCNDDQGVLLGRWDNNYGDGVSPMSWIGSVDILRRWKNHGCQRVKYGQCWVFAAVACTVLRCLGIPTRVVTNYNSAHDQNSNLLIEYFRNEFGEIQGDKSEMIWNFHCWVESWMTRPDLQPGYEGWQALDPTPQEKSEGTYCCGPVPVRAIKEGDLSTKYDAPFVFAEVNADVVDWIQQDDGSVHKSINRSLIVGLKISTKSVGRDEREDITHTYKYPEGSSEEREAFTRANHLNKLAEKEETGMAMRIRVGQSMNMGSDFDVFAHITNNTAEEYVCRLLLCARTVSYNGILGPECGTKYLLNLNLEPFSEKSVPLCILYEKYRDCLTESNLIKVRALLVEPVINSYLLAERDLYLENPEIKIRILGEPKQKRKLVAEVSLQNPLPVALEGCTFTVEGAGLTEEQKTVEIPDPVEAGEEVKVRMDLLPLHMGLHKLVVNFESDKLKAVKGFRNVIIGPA
Kind of test: fluorescent screening assay for human TG2. Format: biochemical. As to conditions: Table 7; 20 nM TG2, 37° C.; read-out: IC50. As for the experimental part:
The fluorescent screening assay for human TG2 was performed as described herein: Assay conditions were 20 nM TG2, 8 μM N,N-dimethylated Casein (NMC) and 16 μM K×D (used for all transglutaminase assays) in 25 mM Hepes, pH 7.4, 250 mM NaCl, 2 mM MgCl2, 0.5 mM CaCl2, 0.2 mM DTT, 0.05% Pluronic F-127 at 37° C. A time point was taken with a microplate reader (Safire or Ultra, Tecan; ex: 350 nm, em: 535 nm) every 3 minutes for up to 2 hours and the initial linear reaction progress was used to determine the reaction velocity as a measure for enzyme activity. Assay conditions were identical for human TG6 and similar for human TG1 and mouse TG2 apart from enzyme concentration (mTG2 at 5 nM; TG1 at 10 nM) and CaCl2 concentration (0.2 mM for mTG2; 0.05 mM for TG1). Factor XIIIa was activated using 0.1 μg/μl thrombin (Sigma) in 35 mM Tris pH 8.0 for 20 min at 30° C. and the transamidation reaction was performed with 20 nM Factor XIIIa in 50 mM Tris pH 8.0, 1.25 mM CaCl2, 0.05% Pluronic, 0.2 mM DTT. TG3 was activated with 0.02 μg/μl thrombin under the same conditions as Factor XIIIa and assay conditions were 10 nM TG3 in 50 mM Hepes, pH 8, 20 mM CaCl2, 0.2 mM DTT, 0.05% Pluronic F-127.
The term IC50 denotes the concentration at which inhibition is half-maximal. In the case of `C=CC(=O)NCCCC[C@H](NC(=O)OCc1ccccc1)C(=O)O` [(2S)-2-{[(benzyloxy)carbonyl]amino}-6-(prop-2-enamido)hexanoic acid], the IC50 lay within 1000 to 100000 nM.

In the case of `C=CC(=O)NCCCC[C@H](NC(=O)OCc1ccccc1)C(=O)N1CCN(c2ncccc2C)CC1` [benzyl N-[(2S)-1-[4-(3-methylpyridin-2-yl)piperazin-1-yl]-1-oxo-6-(prop-2-enamido)hexan-2-yl]carbamate], the concentration for half-maximal inhibition (IC50) was 100 to 1000 nM. In the case of `C=CC(=O)NCCCC[C@H](NC(=O)OCc1ccc(C)cc1)C(=O)O` [(2S)-2-({[(4-methylphenyl)methoxy]carbonyl}amino)-6-(prop-2-enamido)hexanoic acid] it was 1000 to 100000 nM; in that of `C=CC(=O)NCCCC[C@H](NC(=O)OCc1ccccc1)C(=O)N1CCN(c2ncccc2C(F)(F)F)CC1` [benzyl N-[(2S)-1-oxo-6-(prop-2-enamido)-1-{4-[3-(trifluoromethyl)pyridin-2-yl]piperazin-1-yl}hexan-2-yl]carbamate], 100 to 1000 nM; in that of `C=CC(=O)NCCCC[C@H](NC(=O)OCc1c(F)cccc1F)C(=O)O` [(2S)-2-({[(2,6-difluorophenyl)methoxy]carbonyl}amino)-6-(prop-2-enamido)hexanoic acid], 1000 to 100000 nM. As for `C=CC(=O)NCCCC[C@H](NC(=O)OCc1ccccc1)C(=O)N1CCN(C(=O)C23CC4CC(CC(C4)C2)C3)CC1` [benzyl N-[(2S)-1-[4-(adamantane-1-carbonyl)piperazin-1-yl]-1-oxo-6-(prop-2-enamido)hexan-2-yl]carbamate], the half-maximal inhibitory concentration (IC50) was < 100 nM. Next, `C=CC(=O)NCCCC[C@H](NC(=O)OCc1ccc2ccccc2c1)C(=O)O` [(2S)-2-{[(naphthalen-2-ylmethoxy)carbonyl]amino}-6-(prop-2-enamido)hexanoic acid]: 1000 to 100000 nM. Take `C=CC(=O)NCCCC[C@H](NC(=O)OCc1ccccc1)C(=O)N1CCC1` [benzyl N-[(2S)-1-(azetidin-1-yl)-1-oxo-6-(prop-2-enamido)hexan-2-yl]carbamate]: the half-maximal inhibitory concentration (IC50) was 1000 to 100000 nM. Regarding `C=CC(=O)NCCCC[C@H](NC(=O)OCc1ccccc1)C(=O)N(CC)CC` [benzyl N-[(1S)-1-(diethylcarbamoyl)-5-(prop-2-enamido)pentyl]carbamate], the IC50 was 1000 to 100000 nM.

With `C=CC(=O)NCCCC[C@H](NC(=O)OCc1ccccc1Cl)C(=O)O` [(2S)-2-({[(2-chlorophenyl)methoxy]carbonyl}amino)-6-(prop-2-enamido)hexanoic acid], the IC50 lay in the range of 1000 to 100000 nM.

Take `C=CC(=O)NCCCC[C@H](NC(=O)OCc1ccccc1)C(=O)N1CCN(c2cc(Cl)ccc2OC)CC1` [benzyl N-[(2S)-1-[4-(5-chloro-2-methoxyphenyl)piperazin-1-yl]-1-oxo-6-(prop-2-enamido)hexan-2-yl]carbamate]: the IC50 is < 100 nM. Next, `C=CC(=O)NCCCC[C@H](NC(=O)OCc1ccccc1)C(=O)N1CCC(c2ccccc2)CC1` [benzyl N-[(2S)-1-oxo-1-(4-phenylpiperidin-1-yl)-6-(prop-2-enamido)hexan-2-yl]carbamate]: < 100 nM; `C=CC(=O)NCCCC[C@@H](NC(=O)OCc1ccccc1)C(=O)O` [(2R)-2-{[(benzyloxy)carbonyl]amino}-6-(prop-2-enamido)hexanoic acid]: 1000 to 100000 nM.

Take `C=CC(=O)Nc1ccc(C[C@H](NC(=O)OCc2ccccc2)C(=O)O)cc1` [(2S)-2-{[(benzyloxy)carbonyl]amino}-3-[4-(prop-2-enamido)phenyl]propanoic acid]: the half-inhibitory concentration (IC50) was in the range of 1000 to 100000 nM. As for `C=CC(=O)NCCCC[C@H](NC(=O)OCc1ccc([N+](=O)[O-])cc1)C(=O)O` [(2S)-2-({[(4-nitrophenyl)methoxy]carbonyl}amino)-6-(prop-2-enamido)hexanoic acid], the 50% inhibitory concentration (IC50) is 1000 to 100000 nM.

As to `C=CC(=O)NCCC1C[C@@H](C(=O)OC)N(C(=O)OC(C)(C)C)C1` (stereo partly drawn) [1-tert-butyl 2-methyl (2S)-4-[2-(prop-2-enamido)ethyl]pyrrolidine-1,2-dicarboxylate], the concentration for half-maximal inhibition (IC50) was in the range of 1000 to 100000 nM. Next, `C=CC(=O)NCCCC[C@@H](CO)NC(=O)OCc1ccccc1` [benzyl N-[(2S)-1-hydroxy-6-(prop-2-enamido)hexan-2-yl]carbamate]: 1000 to 100000 nM; `C=CC(=O)NCCCC[C@H](NC(=O)OCc1ccccc1)C(=O)NC1C2CC3CC(C2)CC1C3` (stereo partly drawn) [benzyl N-[(1S)-1-[(adamantan-2-yl)carbamoyl]-5-(prop-2-enamido)pentyl]carbamate]: 1000 to 100000 nM. As for `C=CC(=O)NCCCC[C@H](NC(=O)OCc1ccc(F)cc1)C(=O)O` [(2S)-2-({[(4-fluorophenyl)methoxy]carbonyl}amino)-6-(prop-2-enamido)hexanoic acid], the IC50 lay in the range of 1000 to 100000 nM.

For `C=CC(=O)NCCCC[C@H](NC(=O)OCc1ccccc1)C(=O)N1CCN(c2ccc3ccccc3c2)CC1` [benzyl N-[(2S)-1-[4-(naphthalen-2-yl)piperazin-1-yl]-1-oxo-6-(prop-2-enamido)hexan-2-yl]carbamate], the 50% inhibitory concentration (IC50) was in the range of 100 to 1000 nM. Take `C=CC(=O)NCCCC[C@H](NC(=O)c1ccc2ccccc2c1)C(=O)N1CCN(c2cccc(C)n2)CC1` [N-[(5S)-6-[4-(6-methylpyridin-2-yl)piperazin-1-yl]-5-(naphthalen-2-ylformamido)-6-oxohexyl]prop-2-enamide]: the IC50 lay in the range of 1000 to 100000 nM.

For the compound `C=CC(=O)NCCCC[C@H](NC(=O)OCc1ccccc1)C(=O)N1Cc2ccccc2C1` [benzyl N-[(2S)-1-(2,3-dihydro-1H-isoindol-2-yl)-1-oxo-6-(prop-2-enamido)hexan-2-yl]carbamate], the IC50 fell in the range of 100 to 1000 nM. Take `C=CC(=O)NCCCC[C@H](NC(=O)OCc1ccc(C(C)(C)C)cc1)C(=O)O` [(2S)-2-({[(4-tert-butylphenyl)methoxy]carbonyl}amino)-6-(prop-2-enamido)hexanoic acid]: the half-inhibitory concentration (IC50) is 1000 to 100000 nM. In the case of `C=CC(=O)N1CCC(CC(NC(=O)OC(C)(C)C)C(=O)O)CC1` (stereo not drawn) [2-{[(tert-butoxy)carbonyl]amino}-3-[1-(prop-2-enoyl)piperidin-4-yl]propanoic acid] it was 1000 to 100000 nM; in that of `C=CC(=O)NCCCC[C@H](NC(=O)OC)C(=O)O` [(2S)-2-[(methoxycarbonyl)amino]-6-(prop-2-enamido)hexanoic acid], 1000 to 100000 nM. For `C=CC(=O)NCCCC[C@H](NC(=O)OCC1c2ccccc2-c2ccccc21)C(=O)O` [(2S)-2-{[(9H-fluoren-9-ylmethoxy)carbonyl]amino}-6-(prop-2-enamido)hexanoic acid], the half-maximal inhibitory concentration (IC50) was 1000 to 100000 nM. In the case of `C=CC(=O)NCCCC[C@H](NC(=O)OCc1ccccc1)C(=O)N1CCCCCC1` [benzyl N-[(2S)-1-(azepan-1-yl)-1-oxo-6-(prop-2-enamido)hexan-2-yl]carbamate], the half-maximal inhibitory concentration (IC50) lay within 100 to 1000 nM. In the case of `C=CC(=O)NCCCC[C@H](NC(=O)OCc1ccccc1)C(=O)N1CCN(c2ccc(C(F)(F)F)cn2)CC1` [benzyl N-[(2S)-1-oxo-6-(prop-2-enamido)-1-{4-[5-(trifluoromethyl)pyridin-2-yl]piperazin-1-yl}hexan-2-yl]carbamate] it was 100 to 1000 nM; in that of `C=CC(=O)NCCCC[C@H](NC(=O)OCc1ccccc1)C(=O)N1CCCCC1` [benzyl N-[(2S)-1-oxo-1-(piperidin-1-yl)-6-(prop-2-enamido)hexan-2-yl]carbamate], 1000 to 100000 nM; in that of `C=CC(=O)NCCCC[C@H](NC(=O)OCc1ccccc1)C(=O)N1CCN(c2ccccn2)CC1` [benzyl N-[(2S)-1-oxo-6-(prop-2-enamido)-1-[4-(pyridin-2-yl)piperazin-1-yl]hexan-2-yl]carbamate], 100 to 1000 nM. Turning to `C=CC(=O)NCCCC[C@H](NC(=O)OCc1ccc(CCCC)cc1)C(=O)O` [(2S)-2-({[(4-butylphenyl)methoxy]carbonyl}amino)-6-(prop-2-enamido)hexanoic acid], the 50% inhibitory concentration (IC50) lay in the range of 1000 to 100000 nM.

`C=CC(=O)NCCCC[C@H](NC(C)=O)C(=O)N1CCN(c2cccc(C)n2)CC1` [N-[(5S)-5-acetamido-6-[4-(6-methylpyridin-2-yl)piperazin-1-yl]-6-oxohexyl]prop-2-enamide]: the IC50 lay in the range of 100 to 1000 nM. `C=CC(=O)NCCCC[C@H](NC(=O)OCc1ccccc1)C(=O)N1CCOCC1` [benzyl N-[(2S)-1-(morpholin-4-yl)-1-oxo-6-(prop-2-enamido)hexan-2-yl]carbamate]: the concentration for half-maximal inhibition (IC50) lay within 100 to 1000 nM.
